Each structure is given as a SMILES string.

This experiment relates to HBV. Kind of experiment: HepAD38 antiviral assay: reduction of viral product accumulation (virion DNA by qPCR, HBsAg or HBeAg by ELISA). The experiment is classed as cell-based. Conditions: Hepatitis B virus, 120 h; HepAD38 cells, five days after compound addition; 50% reduction of viral product accumulation relative to no drug controls; read-out: HepAD38 EC50. How it is done:
Methods: HepAD38 cells are maintained as previously reported (Ladner et al, Antimicrob. Agents Chemother. 1997, […], 1715). Briefly, cells are passaged upon attaining confluency in DMEM/F12 media in the presence of 10% FBS, Penn/Strep, 250 μg/mL G418, and 1 ug/ml tetracycline. Novel compounds are screened by first washing cells three times with PBS to remove tetracycline, and plating in 96 well plates at 35,000 cells/well. Compounds dissolved in DMSO are then diluted 1:200 into wells containing cells. Five days after compound addition, material is harvested for analysis. For an extended 8 day analysis, cells are plated and treated as described above, but media and compound are refreshed on d2 and d5 post initial treatment.
On harvest day, virion DNA is obtained by lysing with Sidestep Lysis and Stabilization Buffer and then quantified via quantitative real time PCR. Commercially available ELISA kits are used to quantitate the viral proteins HBsAg (Alpco) or HbeAg (US Biological) by following the manufacturer's recommended protocol after diluting samples to match the linear range of their respective assays. Irrespective of readout, compound concentrations that reduce viral product accumulation in the cell lysates or supernatants by 50% relative to no drug controls (EC50) are reported; EC50 ranges are as follows: A<1 μM; B 1-10 μM; C>10 μM.
In general terms: Quantitative PCR measures a nucleic acid by following its amplification.
In the case of `COC(=O)NC1CN(S(=O)(=O)c2cc(-c3ncc(-c4ccc(Br)c(F)c4)[nH]3)ccc2Cl)C1` [Example 273], the EC50 was less than 1000 nM. Regarding `O=S(=O)(c1cc(-c2nc(-c3ccc(Br)c(F)c3)c[nH]2)ccc1Cl)N1C[C@@H](O)C[C@H]2C[C@H]2C1` [Example 34], the EC50 was less than 1000 nM. On to `C[C@H](N)C(=O)OC1CCN(S(=O)(=O)c2cc(-c3nc(-c4ccc(F)c(Br)c4)c[nH]3)ccc2Cl)CC1` [Example 160], for which the EC50 was in the range of 1000 to 10000 nM. As to `O=S(=O)(c1cc(-c2ncc(-c3ccc(Br)c(F)c3)[nH]2)ccc1Cl)N1CC[C@@H](O)C1` [Example 247], the EC50 is more than 10000 nM. `O=S(=O)(c1cc(-c2nc(-c3ccc(Br)c(F)c3)c[nH]2)ccc1Cl)N1CCN(c2cc(Cl)ccn2)CC1` [Example 280]: the EC50 is less than 1000 nM. Take `[2H]C([2H])([2H])Oc1cc(-c2c[nH]c(-c3ccc(Cl)c(S(=O)(=O)N4CCC(O)CC4)c3)n2)ccc1F` [Example 204]: the EC50 was less than 1000 nM. The figure for `COC(=O)N1C[C@@H]2[C@@H](CNS(=O)(=O)c3cc(-c4ncc(-c5ccc(Br)c(F)c5)[nH]4)ccc3Cl)[C@@H]2C1` [Example 272] is 1000 to 10000 nM; for `N#Cc1ccc(-c2c[nH]c(-c3ccc(Cl)c(S(=O)(=O)N4CCC(O)CC4)c3)n2)cc1C1CC1` [Example 170] it is less than 1000 nM. As to `COC1CCCCC1N1CCN(S(=O)(=O)c2cc(-c3nc(-c4ccc(Br)c(F)c4)c[nH]3)ccc2Cl)CC1` (stereo not drawn) [Example 240], the EC50 is less than 1000 nM. Take `CN(C)CC(=O)NCCCNS(=O)(=O)c1cc(-c2nc(-c3ccc(Br)c(F)c3)c[nH]2)ccc1Cl` [Example 200]: the EC50 was in the range of 1000 to 10000 nM. On to `CC(C)(C)OC(=O)NCCCCCNS(=O)(=O)c1cc(-c2nc(-c3ccc(Br)c(F)c3)c[nH]2)ccc1Cl` [Example 176], for which the EC50 is less than 1000 nM. The figure for `[2H]C([2H])([2H])Oc1ccc(-c2c[nH]c(-c3ccc(Cl)c(S(=O)(=O)N4CCC(O)CC4)c3)n2)cc1` [Example 217] is 1000 to 10000 nM. As to `CC(C)(O)CCNS(=O)(=O)c1cc(-c2ncc(-c3ccc(Br)c(F)c3)[nH]2)ccc1Cl` [Example 225], the EC50 is less than 1000 nM. Regarding `O=C(NCCCNS(=O)(=O)c1cc(-c2nc(-c3ccc(Br)c(F)c3)c[nH]2)ccc1Cl)c1ccccc1` [Example 181], the EC50 is less than 1000 nM.

Consider `[2H]C([2H])([2H])Oc1cccc(-c2c[nH]c(-c3ccc(Cl)c(S(=O)(=O)N4CCC(O)CC4)c3)n2)c1` [Example 203], for which the EC50 was more than 10000 nM.

On to `O=S(=O)(c1cc(-c2nc(-c3ccc(Br)c(F)c3)c[nH]2)ccc1Cl)N1CCN(c2ncccc2F)CC1` [Example 276], for which the EC50 is less than 1000 nM.

Regarding `COC(=O)NCCCCCCNS(=O)(=O)c1cc(-c2nc(-c3ccc(Br)c(F)c3)c[nH]2)ccc1Cl` [Example 241], the EC50 was less than 1000 nM. Consider `O=S(=O)(c1cc(-c2nc(-c3ccc(C4CC4)c(C(F)(F)F)c3)c[nH]2)ccc1Cl)N1CCC(O)CC1` [Example 171], for which the EC50 is less than 1000 nM.

As for `O=S(=O)(c1cc(-c2nc(-c3ccc(Br)c(F)c3)c[nH]2)ccc1Cl)N1CC2COCC2C1` (stereo not drawn) [Example 163], the EC50 was less than 1000 nM. For `O=S(=O)(c1cc(-c2ncc(-c3ccc(Br)c(F)c3)[nH]2)ccc1Cl)N1CC[C@H](O)[C@@H](C(F)(F)F)C1` [Example 270], the EC50 was less than 1000 nM.

For the compound `O=S(=O)(c1cc(-c2nc(-c3ccc(Br)c(F)c3)c[nH]2)ccc1Cl)N1CCC[C@@H](O)[C@@H](O)C1` [Example 264], the EC50 was less than 1000 nM. The figure for `CC1CC(O)CCN1S(=O)(=O)c1cc(-c2ncc(-c3ccc(Br)c(F)c3)[nH]2)ccc1Cl` (stereo not drawn) [Example 209] is less than 1000 nM; for `O=S(=O)(c1cc(-c2nc(-c3ccc(Br)c(F)c3)c[nH]2)ccc1Cl)N1CCN([C@@H]2CCCC[C@H]2O)CC1` [Example 250] it is less than 1000 nM. Regarding `O=S(=O)(c1cc(-c2nc(-c3ccccc3O)c[nH]2)ccc1Cl)N1CCC(O)CC1` [Example 159], the EC50 lay within 1000 to 10000 nM. The result for `O=S(=O)(c1cc(-c2ncc(-c3ccc(Br)c(F)c3)[nH]2)ccc1Cl)N1CC[C@H](O)[C@H](O)C1` [Example 230] reads less than 1000 nM; that for `O=S(=O)(c1cc(-c2nc(-c3ccc(Br)c(F)c3)c[nH]2)ccc1Cl)N1CCN(c2ncccc2Cl)CC1` [Example 279], less than 1000 nM. For the compound `O=C(c1ccccc1)N1CCN(S(=O)(=O)c2cc(-c3nc(-c4ccc(Br)c(F)c4)c[nH]3)ccc2Cl)CC1` [Example 165], the EC50 lay in the range of 1000 to 10000 nM. As for `O=S(=O)(c1cc(-c2ncc(-c3ccc(Br)c(F)c3)[nH]2)ccc1Cl)N1CCCCC(CO)C1` (stereo not drawn) [Example 269], the EC50 was less than 1000 nM. Regarding `O=S(=O)(c1cc(-c2nc(-c3ccc(Br)c(F)c3)c[nH]2)ccc1Cl)N1CCCOCC1` [Example 266], the EC50 was less than 1000 nM.

As for `O=S(=O)(c1cc(-c2nc(-c3ccc(F)cc3F)c[nH]2)ccc1Cl)N1CCC(O)CC1` [Example 84], the EC50 fell in the range of 1000 to 10000 nM. `O=C(NCCCNS(=O)(=O)c1cc(-c2nc(-c3ccc(Br)c(F)c3)c[nH]2)ccc1Cl)OCc1ccccc1` [Example 180]: the EC50 was less than 1000 nM. Consider `COC(=O)NCC(=O)NCCCNS(=O)(=O)c1cc(-c2nc(-c3ccc(Br)c(F)c3)c[nH]2)ccc1Cl` [Example 201], for which the EC50 fell in the range of 1000 to 10000 nM. As for `COC(=O)NCCCN(CCCO)S(=O)(=O)c1cc(-c2nc(-c3ccc(Br)c(F)c3)c[nH]2)ccc1Cl` [Example 236], the EC50 is less than 1000 nM.

With `CC(C)(C)OC(=O)NCCCCCCNS(=O)(=O)c1cc(-c2nc(-c3ccc(Br)c(F)c3)c[nH]2)ccc1Cl` [Example 242], the EC50 is less than 1000 nM. The result for `CC(C)(C)OC(=O)N[C@H]1C[C@H](NS(=O)(=O)c2cc(-c3nc(-c4ccc(Br)c(F)c4)c[nH]3)ccc2Cl)C1` [Example 198] reads less than 1000 nM. The figure for `O=S(=O)(c1cc(-c2nc(-c3ccc(F)c(Br)c3)c(F)[nH]2)ccc1Cl)N1CCC(O)CC1` [Example 197] is less than 1000 nM; for `O=S(=O)(c1cc(-c2nc(-c3ccc(Br)c(F)c3)c[nH]2)ccc1Cl)N1CCN(C2CCCCC2F)CC1` (stereo not drawn) [Example 249] it is less than 1000 nM; for `O=S(=O)(c1cc(-c2ncc(-c3ccc(Br)c(F)c3)[nH]2)ccc1Cl)N1C[C@@H]2[C@@H](O)[C@@H]2C1` [Example 243] it is less than 1000 nM.

For `O=S(=O)(c1cc(-c2ncc(-c3ccc(Br)c(F)c3)[nH]2)ccc1Cl)N1C[C@@H](O)[C@@H](O)C1` [Example 228], the EC50 was less than 1000 nM. The figure for `CC(C)(C)OC(=O)NC1CN(S(=O)(=O)c2cc(-c3ncc(-c4ccc(Br)c(F)c4)[nH]3)ccc2Cl)C1` [Example 183] is less than 1000 nM; for `C[C@@H]1CN(S(=O)(=O)c2cc(-c3ncc(-c4ccc(Br)c(F)c4)[nH]3)ccc2Cl)CC[C@H]1O` [Example 208] it is less than 1000 nM. In the case of `COc1ccc(-c2c[nH]c(-c3ccc(Cl)c(S(=O)(=O)N4CCC(O)CC4)c3)n2)cc1Cl` [Example 202], the EC50 was more than 10000 nM. The result for `N#Cc1ccc(-c2c[nH]c(-c3ccc(Cl)c(S(=O)(=O)N4CCC(O)CC4)c3)n2)cc1` [Example 97] reads less than 1000 nM; that for `O=S(=O)(c1cc(-c2nc(-c3ccc(Br)c(F)c3)c[nH]2)ccc1Cl)N1CC=C(c2ccccn2)CC1` [Example 221], 1000 to 10000 nM. The result for `CC(C)(C)OC(=O)NCCCCNS(=O)(=O)c1cc(-c2nc(-c3ccc(Br)c(F)c3)c[nH]2)ccc1Cl` [Example 174] reads less than 1000 nM; that for `O=S(=O)(c1cc(-c2nc(-c3ccc(Br)c(F)c3)c[nH]2)ccc1Cl)N1CCn2c(nnc2C(F)(F)F)C1` [Example 265], less than 1000 nM; that for `COCCN(C)S(=O)(=O)c1cc(-c2ncc(-c3ccc(F)c(Br)c3)[nH]2)ccc1Cl` [Example 77], more than 10000 nM. With `O=S(=O)(c1cc(-c2ncc(-c3ccc(Br)c(F)c3)[nH]2)ccc1Cl)N1CCC[C@H](CO)C1` [Example 262], the EC50 is less than 1000 nM.

With `O=S(=O)(c1cc(-c2nc(-c3ccc(Br)c(F)c3)c[nH]2)ccc1Cl)N1CCC[C@@H](O)CC1` [Example 234], the EC50 is less than 1000 nM. On to `O=S(=O)(c1cc(-c2ncc(-c3ccc(Br)c(F)c3)[nH]2)ccc1Cl)N1CCC[C@@H](O)C1` [Example 268], for which the EC50 was less than 1000 nM. On to `O=S(=O)(c1cc(-c2nc(-c3ccccc3Br)c[nH]2)ccc1Cl)N1CCC(O)CC1` [Example 74], for which the EC50 was more than 10000 nM. As to `O=S(=O)(c1cc(-c2nc(-c3cccc(CC(F)(F)F)c3)c[nH]2)ccc1Cl)N1CCC(O)CC1` [Example 239], the EC50 was more than 10000 nM. As for `O=S(=O)(c1cc(-c2nc(-c3ccc(Br)c(F)c3)c[nH]2)ccc1Cl)N1CCC[C@H](O)[C@@H](O)C1` [Example 278], the EC50 was less than 1000 nM. Consider `COC(=O)NCCC(C)NS(=O)(=O)c1cc(-c2nc(-c3ccc(Br)c(F)c3)c[nH]2)ccc1Cl` (stereo not drawn) [Example 172], for which the EC50 was less than 1000 nM. For the compound `O=S(=O)(c1cc(-c2ncc(-c3ccc(Br)c(F)c3)[nH]2)ccc1Cl)N1CC[C@H](O)C1` [Example 271], the EC50 was less than 1000 nM. With `O=S(=O)(c1cc(-c2nc(-c3ccc4ocnc4c3)c[nH]2)ccc1Cl)N1CCC(O)CC1` [Example 76], the EC50 is more than 10000 nM. `O=S(=O)(c1cc(-c2nc(-c3ccc(Cl)c(C(F)(F)F)c3)c[nH]2)ccc1Cl)N1CCC(O)CC1` [Example 152]: the EC50 is less than 1000 nM.

As a reminder, the EC50 is the concentration giving half of the maximal effect.
